Experiments:
[1] = target: T1, human recombinant HDAC6 (Homo sapiens, UniProt Q9UBN7); experiment: In vitro HDAC enzyme activity inhibition assay, HDAC6 (HDAC Fluorimetric Drug Discovery Kit); format: biochemical; conditions: for HDAC6 Selectivity (fold): HDAC6 versus HDAC1; for IC50: human recombinant HDAC6, same protocol as the HDAC1 test
T1 construct: purchased Calbiochem Inc. 382180
T1 sequence (Q9UBN7 1-1215): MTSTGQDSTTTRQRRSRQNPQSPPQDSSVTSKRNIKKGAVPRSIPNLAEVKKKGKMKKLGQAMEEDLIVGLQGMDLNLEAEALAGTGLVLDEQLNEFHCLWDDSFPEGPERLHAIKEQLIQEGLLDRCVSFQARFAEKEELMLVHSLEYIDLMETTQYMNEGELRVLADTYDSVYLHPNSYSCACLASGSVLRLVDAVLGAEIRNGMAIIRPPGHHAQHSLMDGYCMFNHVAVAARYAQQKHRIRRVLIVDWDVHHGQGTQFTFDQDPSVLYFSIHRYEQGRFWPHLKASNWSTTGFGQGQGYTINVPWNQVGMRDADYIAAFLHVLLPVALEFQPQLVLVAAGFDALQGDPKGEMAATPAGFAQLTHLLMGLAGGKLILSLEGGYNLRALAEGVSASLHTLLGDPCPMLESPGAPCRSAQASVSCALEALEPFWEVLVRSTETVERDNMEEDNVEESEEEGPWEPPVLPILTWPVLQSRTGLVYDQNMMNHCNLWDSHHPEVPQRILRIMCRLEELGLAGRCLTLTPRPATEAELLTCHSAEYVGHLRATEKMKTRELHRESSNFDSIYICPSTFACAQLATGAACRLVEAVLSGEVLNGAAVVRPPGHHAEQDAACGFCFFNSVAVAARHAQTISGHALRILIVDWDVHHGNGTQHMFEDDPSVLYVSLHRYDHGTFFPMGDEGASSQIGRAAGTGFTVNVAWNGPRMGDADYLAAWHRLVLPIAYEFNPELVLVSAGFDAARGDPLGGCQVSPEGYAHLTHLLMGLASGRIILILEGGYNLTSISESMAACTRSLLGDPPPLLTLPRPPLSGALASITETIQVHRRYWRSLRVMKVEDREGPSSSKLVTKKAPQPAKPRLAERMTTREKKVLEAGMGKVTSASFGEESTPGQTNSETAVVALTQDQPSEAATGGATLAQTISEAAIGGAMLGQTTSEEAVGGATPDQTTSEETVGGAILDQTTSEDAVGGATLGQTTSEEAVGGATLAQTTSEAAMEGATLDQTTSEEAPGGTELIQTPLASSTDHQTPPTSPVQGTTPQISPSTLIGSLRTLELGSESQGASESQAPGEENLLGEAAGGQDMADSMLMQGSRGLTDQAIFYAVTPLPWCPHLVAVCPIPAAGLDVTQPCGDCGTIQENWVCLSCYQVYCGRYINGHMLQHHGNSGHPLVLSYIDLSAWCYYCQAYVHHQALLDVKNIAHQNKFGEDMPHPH
Description: (§1) In order to confirm the selectivity of the compounds represented by Chemical Formula I of the present invention to HDAC6 through HDAC1 and HDAC6 enzyme activity inhibition experiments, a comparison experiment was performed using the material that has already been developed as a control group.
(§2) HDAC enzyme activity was measured using the HDAC Fluorimetric Drug Discovery Kit (Enzo Life Sciences, Inc., BML-AK511, 516). For the HDAC1 enzyme activity test, human recombinant HDAC1 (BML-SE456) was used as an enzyme source and Fluor de Lys®-SIRT1 (BNL-KI177) was used as a substrate. After dispensing 5-fold diluted compounds into a 96-well plate, 0.3 μg of enzyme and 10 μM substrate were added to each well of the plate and allowed to react at 30° C. for 60 minutes. Next, Fluor de Lys® Developer II (BML-KI176) was added and reacted for 30 minutes to complete the reaction, and then the fluorescence values (Ex 360, Em 460) were measured using a multi-plate reader (Flexstation 3, Molecular Device). The HDAC6 enzymes were tested using human recombinant HDAC6 (382180) from Calbiochem Inc., according to the same protocol as the HDAC1 enzyme activity test method. With respect to the final result values, respective IC50 values were calculated using GraphPad Prism 4.0 program, and results thereof were summarized in Table 5 below.

[2] = target: T2, human recombinant HDAC1 (Homo sapiens, UniProt Q13547); experiment: In vitro HDAC enzyme activity inhibition assay, HDAC1 (HDAC Fluorimetric Drug Discovery Kit); format: biochemical; conditions: human recombinant HDAC1, Fluor de Lys-SIRT1 substrate 10 μM, 30° C. for 60 minutes
T2 construct: purchased Enzo Life Sciences, Inc. BML-SE456
T2 sequence (Q13547 whole entry): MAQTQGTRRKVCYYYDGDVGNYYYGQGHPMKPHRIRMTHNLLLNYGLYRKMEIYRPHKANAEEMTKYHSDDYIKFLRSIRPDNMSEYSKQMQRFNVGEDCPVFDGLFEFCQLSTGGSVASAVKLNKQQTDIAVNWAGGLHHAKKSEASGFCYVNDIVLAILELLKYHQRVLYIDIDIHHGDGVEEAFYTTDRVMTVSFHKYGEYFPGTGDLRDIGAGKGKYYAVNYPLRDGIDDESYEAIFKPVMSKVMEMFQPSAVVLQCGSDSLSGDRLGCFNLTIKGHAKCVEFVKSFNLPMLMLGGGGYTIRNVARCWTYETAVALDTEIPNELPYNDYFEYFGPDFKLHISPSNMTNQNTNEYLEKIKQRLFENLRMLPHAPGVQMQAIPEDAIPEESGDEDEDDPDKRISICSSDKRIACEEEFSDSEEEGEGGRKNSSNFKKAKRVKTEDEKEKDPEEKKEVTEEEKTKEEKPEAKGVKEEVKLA
Description: as §1, §2

SMILES	HDAC6 Selectivity (fold) [1]	IC50 [1]	IC50 [2]
O=C(C1CCN(C2COC2)CC1)N(Cc1cn2ccc(-c3nnc(C(F)F)o3)cc2n1)c1cccc(F)c1 [Compound 4142, N-((7-(5-(difluoromethyl)-1,3,4-oxadiazol-2-yl)imidazo[1,2-a]pyridin-2-yl)methyl)-N-(3-fluorophenyl)-1-(oxetan-3-yl)piperidine-4-carboxamide]	234 fold	214 nM	> 50 µM
FC(F)c1nnc(-c2ccn3cc(Cc4ccccc4)nc3c2)o1 [Compound 3009, 2-(2-benzylimidazo[1,2-a]pyridin-7-yl)-5-(difluoromethyl)-1,3,4-oxadiazole]	631 fold	79.2 nM	> 50 µM
COC(=O)N1CCN(C(=O)N(Cc2cn3ccc(-c4nnc(C(F)F)o4)cc3n2)c2ccccc2)CC1 [Compound 4046, methyl 4-(((7-(5-(difluoromethyl)-1,3,4-oxadiazol-2-yl)imidazo[1,2-a]pyridin-2-yl)methyl)(phenyl)carbamoyl)piperazine-1-carboxylate]	400 fold	125 nM	> 50 µM
CCC(=O)N1CCN(C(=O)N(Cc2cn3ccc(-c4nnc(C(F)F)o4)cc3n2)c2cccc(F)c2)CC1 [Compound 4093, N-((7-(5-(difluoromethyl)-1,3,4-oxadiazol-2-yl)imidazo[1,2-a]pyridin-2-yl)methyl)-N-(3-fluorophenyl)-4-propionylpiperazine-1-carboxamide]	256 fold	195 nM	> 50 µM
O=C(C1CCN(C2CCC(F)(F)CC2)CC1)N(Cc1cn2ccc(-c3nnc(C(F)F)o3)cc2n1)c1cccc(F)c1 [Compound 4145, 1-(4,4-difluorocyclohexyl)-N-((7-(5-(difluoromethyl)-1,3,4-oxadiazol-2-yl)imidazo[1,2-a]pyridin-2-yl)methyl)-N-(3-fluorophenyl)piperidine-4-carboxamide]	217 fold	230 nM	> 50 µM
O=C(N1CCN(C2CCOCC2)CC1)N(Cc1cn2ccc(-c3nnc(C(F)F)o3)cc2n1)c1cccc(F)c1 [Compound 4090, N-((7-(5-(difluoromethyl)-1,3,4-oxadiazol-2-yl)imidazo[1,2-a]pyridin-2-yl)methyl)-N-(3-fluorophenyl)-4-(tetrahydro-2H-pyran-4-yl)piperazine-1-carboxamide]	216 fold	232 nM	> 50 µM
Fc1ccc(NCc2cn3ccc(-c4nnc(C(F)F)o4)cc3n2)cc1F [Compound 3671, N-((7-(5-(difluoromethyl)-1,3,4-oxadiazol-2-yl)imidazo[1,2-a]pyridin-2-yl)methyl)-3,4-difluoroaniline]	318 fold	157 nM	> 50 µM
CN(C)C(=O)N1CCN(C(=O)N(Cc2cn3ccc(-c4nnc(C(F)F)o4)cc3n2)c2cccc(F)c2)CC1 [Compound 4099, N1-((7-(5-(difluoromethyl)-1,3,4-oxadiazol-2-yl)imidazo[1,2-a]pyridin-2-yl)methyl)-N1-(3-fluorophenyl)-N4,N4-dimethylpiperazine-1,4-dicarboxamide]	360 fold	139 nM	> 50 µM
CC(C)c1cccc(Cc2cn3ccc(-c4nnc(C(F)F)o4)cc3n2)c1 [Compound 3594, 2-(difluoromethyl)-5-(2-(3-isopropylbenzyl)imidazo[1,2-a]pyridin-7-yl)-1,3,4-oxadiazole]	89 fold	564 nM	> 50 µM
O=C(C1CCN(C2CCCCC2)CC1)N(Cc1cn2ccc(-c3nnc(C(F)F)o3)cc2n1)c1cccc(F)c1 [Compound 4143, 1-cyclohexyl-N-((7-(5-(difluoromethyl)-1,3,4-oxadiazol-2-yl)imidazo[1,2-a]pyridin-2-yl)methyl)-N-(3-fluorophenyl)piperidine-4-carboxamide]	335 fold	149 nM	> 50 µM
FC(F)c1nnc(-c2ccn3cc(CNC4CCCCC4)nc3c2)o1 [Compound 3678, N-((7-(5-(difluoromethyl)-1,3,4-oxadiazol-2-yl)imidazo[1,2-a]pyridin-2-yl)methyl)cyclohexanamine]	170 fold	294 nM	> 50 µM
CN(C)C(=O)N1CCC(C(=O)N(Cc2cn3ccc(-c4nnc(C(F)F)o4)cc3n2)c2cccc(F)c2)CC1 [Compound 4155, N4-((7-(5-(difluoromethyl)-1,3,4-oxadiazol-2-yl)imidazo[1,2-a]pyridin-2-yl)methyl)-N4-(3-fluorophenyl)-N1,N1-dimethylpiperidine-1,4-dicarboxamide]	142 fold	352 nM	> 50 µM
COC(=O)N1CCC(C(=O)N(Cc2cn3ccc(-c4nnc(C(F)F)o4)cc3n2)c2cccc(F)c2)CC1 [Compound 4154, methyl 4-(((7-(5-(difluoromethyl)-1,3,4-oxadiazol-2-yl)imidazo[1,2-a]pyridin-2-yl)methyl)(3-fluorophenyl)carbamoyl)piperidine-1-carboxylate]	218 fold	229 nM	> 50 µM
CN(C)C(=O)N1CC(C(=O)N(Cc2cn3ccc(-c4nnc(C(F)F)o4)cc3n2)c2cccc(F)c2)C1 [Compound 4205, N3-((7-(5-(difluoromethyl)-1,3,4-oxadiazol-2-yl)imidazo[1,2-a]pyridin-2-yl)methyl)-N3-(3-fluorophenyl)-N1,N1-dimethylazetidine-1,3-dicarboxamide]	348 fold	144 nM	> 50 µM
O=C(C1CCN(c2ccccn2)CC1)N(Cc1cn2ccc(-c3nnc(C(F)F)o3)cc2n1)c1ccccc1 [Compound 4131, N-((7-(5-(difluoromethyl)-1,3,4-oxadiazol-2-yl)imidazo[1,2-a]pyridin-2-yl)methyl)-N-phenyl-1-(pyridin-2-yl)piperidine-4-carboxamide]	91 fold	547 nM	> 50 µM
CC(C)N1CCN(C(=O)N(Cc2cn3ccc(-c4nnc(C(F)F)o4)cc3n2)c2ccccc2)CC1 [Compound 4034, N-((7-(5-(difluoromethyl)-1,3,4-oxadiazol-2-yl)imidazo[1,2-a]pyridin-2-yl)methyl)-4-isopropyl-N-phenylpiperazine-1-carboxamide]	485 fold	103 nM	> 50 µM
Fc1ccc(Cc2cn3ccc(-c4nnc(C(F)F)o4)cc3n2)c(F)c1 [Compound 3588, 2-(2-(2,4-difluorobenzyl)imidazo[1,2-a]pyridin-7-yl)-5-(difluoromethyl)-1,3,4-oxadiazole]	205 fold	244 nM	> 50 µM
O=C(C1COC1)N1CCC(C(=O)N(Cc2cn3ccc(-c4nnc(C(F)F)o4)cc3n2)c2ccccc2)CC1 [Compound 4126, N-((7-(5-(difluoromethyl)-1,3,4-oxadiazol-2-yl)imidazo[1,2-a]pyridin-2-yl)methyl)-1-(oxetan-3-carbonyl)-N-phenylpiperidine-4-carboxamide]	124 fold	404 nM	> 50 µM
